In patent publication US4551472A, “Unsymmetrical bis-carbamate compounds” (priority 1984, dated 1985):

Tests used:
Bean = test: Phytotoxicity Test, bean; settings: 2500 ppm spray, ten days
Procedure: (§1) Experiments were also conducted to determine the phytotoxicity of representative compounds with respect to healthy fresh plants. […] The test plants were sprayed in accordance with the procedure described above for the Mite Foliage Spray Test so as to deliver approximately 100 milliliters of test solution to the leaves of each plant tested. The sprayed plants and controls were set aside for approximately one hour to allow the foliage to dry and were then placed in the greenhouse. After ten days the plants were visually inspected to determine the extent of foliage injury. A rating of 1 indicates no perceptible injury; 5 indicates the plant was dead and ratings of 2, 3 and 4 indicate intermediate degrees of injury based upon the number and extent to which leaves were injured.

Cotton = test: Phytotoxicity Test, cotton; settings: 2500 ppm spray, ten days
Procedure: as §1

Corn = test: Phytotoxicity Test, corn; settings: 2500 ppm spray, ten days
Procedure: as §1

[1] = Mammalian Toxicity, peroral toxicity to rat; assay type: in vivo; settings: in vivo, po, read-out: A.O. Rat LD50
Procedure: Certain compounds were also evaluated to determine their peroral toxicity to mammals by conventional methods. The representative animal selected for this experiment was the rat.

Tom = test: Phytotoxicity Test, tomato; settings: 2500 ppm spray, ten days
Procedure: as §1

Soy = test: Phytotoxicity Test, soy; settings: 2500 ppm spray, ten days
Procedure: as §1

[2] = test system: root-knot nematode, Meloidogyne incognita var. acrita; test: Nematocide Test; also: key: 1: severe galling, equal to untreated plants; 2: moderate galling; 3: light galling; 4: very light galling; 5: no galling, perfect control; assay type: in vivo; settings: 3.33 m.g. per jar; cucumber, approximately 3 weeks
Procedure: The test organism used was the infective migratory larvae of the root-knot nematode, Meloidogyne incognita var. acrita, reared in the greenhouse on roots of cucumber plants. Infected plants were removed from the culture, and the roots are chopped very finely. A small amount of this inoculum was added to a pint jar containing approximately 180 cc. of soil. The jars were capped and incubated for one week at room temperature. During this period eggs of the nematode were hatched, and the larval forms migrated into the soil.
Ten ml. of the test formulation were added to each of the two jars for each dosage tested. Following the addition of chemical, the jars were capped, and the contents thoroughly mixed on a ball mill for 5 minutes.
The test compounds were formulated by a standard procedure of solution in acetone addition of an emulsifier, and dilution with water. Primary screening tests were conducted at 3.33 m.g. of the test compound per jar.
The jars were left capped at room temperature for a period of 48 hours, and the contents then transferred to 3 inch pots. Subsequently, the pots were seeded to cucumber as an indicator crop and placed in the greenhouse where they were cared for in the normal fashion for approximately 3 weeks.
The cucumber plants were then taken from the pots, the soil removed from the roots; and the amount of galling visually rated.
In the test for activity against nematodes (nem) activity was rated as follows: […]

Structure (SMILES) | Phytotoxicity: Bean (Bean) | Phytotoxicity: Cotton (Cotton) | Phytotoxicity: Corn (Corn) | LD50 [1] | Phytotoxicity: Tom (Tom) | Phytotoxicity: Soy (Soy) | Biological Activity: Nem (nematode, galling rating) [2]
CSC(C)=NOC(=O)N(C)SN(C)C(=O)ON=CC(C)(C)SC [Example I, N-[2-Methylthio-2-methylpropionaldehyde O-(N-methylcarbamoyl)oxime]N-[1-methylthioacetaldehyde O-(N-methylcarbamoyl)oxime]sulfide] | 2 | 2 | 1 | 2.1 mg/kg | 1 | 1 | 5
CN(SN(C)C(=O)ON=C1SC(C)(C)C(=O)N1C)C(=O)ON=C1CSCCS1 [Example III, N-[2-(O-(N-methylcarbamoyl)oximino]-1,4-dithiane]-N-[2-O-(N-methylcarbamoyl)oximino-3,5,5-trimethylthiazolidin-4-one]sulfide] | 1 | 2 | 2 | 160 mg/kg | 1 | 2 | 1
C#CCOC(=O)N(C)SN(C)C(=O)ON=C1SC(C)(C)C(=O)N1C [IV, N-[N-methyl-N-propargyloxycarbonylamino]N-[3,5,5-trimethylthiazolidin-4-one-2 O-(N-methylcarbamoyl)oxime]sulfide] | 1 | 2 | 1 |  | 2 | 2 | 1
CSC(C)=NOC(=O)N(C)SN(C)C(=O)ON=C(SC)C(=O)N(C)C [XI, N-[1-Methylthioacetaldehyde O-(N-methylcarbamoyl)oxime]N-[1-methylthio-N', N'-dimethylcarbamoylformaldehyde O-(N-methylcarbamoyl)oxime]sulfide] | 1 | 2 | 1 | 14.1 mg/kg | 1 | 1 | 
CCC(C)c1cc([N+](=O)[O-])cc([N+](=O)[O-])c1OC(=O)N(C)SN(C)C(=O)ON=C(C)SC (stereo not drawn) [XIX, N-[1-Methylthioacetaldehyde O-(N-methylcarbamoyl)oxime]N-[2,4-dinitro-6-sec-butylphenyl-(N-methylcarbamoyloxy)]sulfide] | 1 | 2 | 2 |  | 2 | 2 | 1
CSC(C)=NOC(=O)N(C)SN(C)C(=O)ON=C(C)C(=O)c1ccccc1 [XLI] | 1 | 1 | 1 |  | 1 | 1 | 1
CSC(C)=NOC(=O)N(C)SN(C)C(=O)ON=C1SCSCS1 [XL] | 1 | 1 | 1 |  | 1 | 1 | 5
CSC(C)=NOC(=O)N(C)SN(C)C(=O)Oc1cccc(N(C)C)c1 [XX, N-[1-Methylthioacetaldehyde O-(N-methylcarbamoyl)oxime]N-[3-(N',N'-dimethylamino)phenyl-(N-methylcarbamoyloxy)]sulfide] | 1 | 2 | 1 |  | 1 | 2 | 4
CSC(C)=NOC(=O)N(C)SN(C)C(=O)Oc1ccc(NC=O)c(C)c1 [XXI, N-[1-Methylthioacetaldehyde O-(N-methylcarbamoyl)oxime]N-[4-formylamino-3-methylphenyl-(N-methylcarbamoyloxy)]sulfide] | 1 | 1 | 1 |  | 1 | 1 | 4
CSC(C)=NOC(=O)N(C)SN(C)C(=O)Oc1ccc(C(C)(C)C)cc1Cl [XXIX] | 1 | 1 | 1 |  | 1 | 1 | 5
CC(C)c1ccc(OC(=O)N(C)SN(C)C(=O)ON=C2CSCCS2)cc1 [XXV, N-[2-O-(N-methylcarbamoyl)oximino-1,4-dithiane]N-[4-isopropyl-(N-methylcarbamoyloxy)benzene]sulfide] | 1 | 3 | 1 |  | 1 | 1 | 
CSC(C)=NOC(=O)N(C)SN(C)C(=O)Oc1cccc(C(C)C)c1 [XXVIII] | 1 | 2 | 1 | 40 mg/kg | 1 | 2 | 
C#CCOC(=O)N(C)SN(C)C(=O)Oc1ccc(C)c(C)c1 [XXVII] | 1 | 2 | 1 |  | 1 | 2 | 5
C#CCOC(=O)N(C)SN(C)C(=O)Oc1cccc2ccccc12 [XXVI] | 1 | 1 | 1 |  | 1 | 2 | 4
C=CCc1ccc(OC(=O)N(C)SN(C)C(=O)ON=C(C)SC)c(OC)c1 [XXXIII] | 1 | 3 | 1 |  | 1 | 1 | 5
CSC(C)=NOC(=O)N(C)SN(C)C(=O)Oc1ccc(-c2ccccc2)cc1 [XXXII] | 2 | 2 | 1 |  | 1 | 1 | 4
CSC(C)=NOC(=O)N(C)SN(C)C(=O)Oc1ccc(Oc2ccccc2)cc1 [XXXIV] | 1 | 1 | 1 | > 640 mg/kg | 1 | 1 | 
CSC(C)=NOC(=O)N(C)SN(C)C(=O)Oc1ccccc1OC(C)C [XXXVIII] | 1 | 1 | 1 | 63.5 mg/kg | 1 | 2 | 
CSC(C)=NOC(=O)N(C)SN(C)C(=O)Oc1ccccc1C1OCCO1 [XXXVII] | 2 | 2 | 1 |  | 1 | 2 | 4
CSC(C)=NOC(=O)N(C)SN(C)C(=O)Oc1cccc(Oc2ccccc2)c1 [XXXV] | 1 | 1 | 1 |  | 1 | 1 | 
CCCCCCCCCCCCc1ccc(OC(=O)N(C)SN(C)C(=O)ON=C(C)SC)cc1 [XXX] | 1 | 2 | 1 |  | 1 | 1 | 4
